Assay results published in patent US20240226101A1, “PYRIMIDINYLAMINOBENZENES FOR LUNG CANCER TREATMENT” (Suzhou Puhe BioPharma Co., LTD., priority 2021, published 2024).
Values joined by “and” are separate entries in the source; they are usually repeats but may differ in a detail not shown here. Identical values can stand only once.

Assays:
[1] = biological target: T1, EGFR A763_Y764insFQEA in Ba/F3 cell lines (Homo sapiens, UniProt P00533, INS763FQEA); test: […]-GLO cell viability assay, Ba/F3 cells with EGFR A763_Y764insFQEA; assay type: cell-based
T1 construct: expressed in transfected cells; host or cells: Ba/F3
T1 sequence (P00533 with tags, fused parts or gaps INS763FQEA): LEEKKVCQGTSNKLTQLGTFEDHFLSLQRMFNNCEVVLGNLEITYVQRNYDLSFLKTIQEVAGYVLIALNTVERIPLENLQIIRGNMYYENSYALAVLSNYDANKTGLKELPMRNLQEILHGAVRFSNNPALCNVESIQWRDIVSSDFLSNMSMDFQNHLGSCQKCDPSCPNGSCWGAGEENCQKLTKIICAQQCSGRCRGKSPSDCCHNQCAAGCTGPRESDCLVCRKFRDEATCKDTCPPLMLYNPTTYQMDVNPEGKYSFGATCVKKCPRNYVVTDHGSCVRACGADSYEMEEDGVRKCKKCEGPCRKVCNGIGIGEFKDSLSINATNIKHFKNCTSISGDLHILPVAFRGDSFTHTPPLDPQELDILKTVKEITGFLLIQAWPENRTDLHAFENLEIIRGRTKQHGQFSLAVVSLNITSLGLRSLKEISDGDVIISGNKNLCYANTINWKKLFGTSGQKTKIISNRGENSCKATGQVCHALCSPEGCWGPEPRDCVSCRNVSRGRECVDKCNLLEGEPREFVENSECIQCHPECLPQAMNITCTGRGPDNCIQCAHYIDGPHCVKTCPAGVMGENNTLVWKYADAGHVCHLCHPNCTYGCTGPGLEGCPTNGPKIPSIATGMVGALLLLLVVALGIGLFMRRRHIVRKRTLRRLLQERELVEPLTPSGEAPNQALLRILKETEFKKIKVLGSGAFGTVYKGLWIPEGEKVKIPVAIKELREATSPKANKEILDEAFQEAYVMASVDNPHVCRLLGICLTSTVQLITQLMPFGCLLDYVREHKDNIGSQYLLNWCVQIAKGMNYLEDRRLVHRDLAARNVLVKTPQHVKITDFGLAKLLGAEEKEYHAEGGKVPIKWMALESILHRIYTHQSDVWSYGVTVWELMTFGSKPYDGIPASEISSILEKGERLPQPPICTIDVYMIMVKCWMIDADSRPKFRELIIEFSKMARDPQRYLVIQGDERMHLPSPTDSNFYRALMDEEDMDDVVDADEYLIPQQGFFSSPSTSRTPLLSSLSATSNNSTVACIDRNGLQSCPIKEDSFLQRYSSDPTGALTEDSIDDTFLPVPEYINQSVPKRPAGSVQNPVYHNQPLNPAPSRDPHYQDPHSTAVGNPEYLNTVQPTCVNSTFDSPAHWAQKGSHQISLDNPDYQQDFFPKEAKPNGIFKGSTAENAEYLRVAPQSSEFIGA

[2] = biological target: EGFR V769_D770insGE (Homo sapiens, UniProt P00533, INS769GE); test: HTFR KINEASE-TK kit (Cisbio) inhibition of EGFR mutant V769_D770insGE; assay type: biochemical
Protocol: (§1) Compound A13 was tested against EGFR mutants: (i) three exon 20 insertions: […], D770_N771insNPG, and A763_Y764insFQEA; and (ii) one point mutation: L861Q; using an HTFR KINEASE-TK kit (Cisbio) according to the manufacturer's protocol.

[3] = biological target: T2, EGFR V769_D770insASV in Ba/F3 cell lines (Homo sapiens, UniProt P00533, INS769ASV); test: […]-GLO cell viability assay, Ba/F3 cells with EGFR V769_D770insASV; assay type: cell-based
T2 construct: expressed in transfected cells; host or cells: Ba/F3
T2 sequence (P00533 with tags, fused parts or gaps INS769ASV): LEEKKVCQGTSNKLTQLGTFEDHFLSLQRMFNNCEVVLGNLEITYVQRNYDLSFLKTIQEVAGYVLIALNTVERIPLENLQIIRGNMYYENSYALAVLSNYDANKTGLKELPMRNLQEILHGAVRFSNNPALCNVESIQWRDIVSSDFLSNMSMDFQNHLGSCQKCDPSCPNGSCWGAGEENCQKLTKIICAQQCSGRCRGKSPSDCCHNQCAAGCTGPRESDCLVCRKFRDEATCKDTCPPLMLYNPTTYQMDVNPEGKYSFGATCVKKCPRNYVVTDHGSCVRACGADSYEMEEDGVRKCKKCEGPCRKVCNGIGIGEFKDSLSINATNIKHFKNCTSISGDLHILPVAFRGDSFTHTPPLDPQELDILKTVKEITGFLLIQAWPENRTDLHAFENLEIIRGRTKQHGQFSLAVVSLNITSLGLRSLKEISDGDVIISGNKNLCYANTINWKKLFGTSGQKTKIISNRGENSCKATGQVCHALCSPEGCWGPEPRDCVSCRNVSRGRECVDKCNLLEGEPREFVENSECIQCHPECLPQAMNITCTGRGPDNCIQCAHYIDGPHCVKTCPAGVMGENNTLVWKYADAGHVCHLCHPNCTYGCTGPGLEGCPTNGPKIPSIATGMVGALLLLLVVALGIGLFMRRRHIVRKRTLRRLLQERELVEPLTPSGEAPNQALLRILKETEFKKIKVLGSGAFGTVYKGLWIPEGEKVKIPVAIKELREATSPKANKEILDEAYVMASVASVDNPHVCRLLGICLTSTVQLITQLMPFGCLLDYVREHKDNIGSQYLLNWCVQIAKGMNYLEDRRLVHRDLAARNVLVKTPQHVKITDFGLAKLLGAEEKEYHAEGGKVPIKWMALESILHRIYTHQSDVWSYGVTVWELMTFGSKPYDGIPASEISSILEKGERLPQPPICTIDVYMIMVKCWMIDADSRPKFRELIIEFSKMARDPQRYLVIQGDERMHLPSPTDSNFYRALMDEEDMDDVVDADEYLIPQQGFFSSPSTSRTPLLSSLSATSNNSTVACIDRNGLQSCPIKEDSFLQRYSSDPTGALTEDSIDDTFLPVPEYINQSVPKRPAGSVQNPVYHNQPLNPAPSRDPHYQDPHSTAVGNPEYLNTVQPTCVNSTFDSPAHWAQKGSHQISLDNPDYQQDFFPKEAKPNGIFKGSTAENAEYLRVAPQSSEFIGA

[4] = biological target: T3, EGFR D770_N771insSVD in Ba/F3 cell lines (Homo sapiens, UniProt P00533, INS770SVD); test: […]-GLO cell viability assay, Ba/F3 cells with EGFR D770_N771insSVD; assay type: cell-based
T3 construct: expressed in transfected cells; host or cells: Ba/F3
T3 sequence (P00533 with tags, fused parts or gaps INS770SVD): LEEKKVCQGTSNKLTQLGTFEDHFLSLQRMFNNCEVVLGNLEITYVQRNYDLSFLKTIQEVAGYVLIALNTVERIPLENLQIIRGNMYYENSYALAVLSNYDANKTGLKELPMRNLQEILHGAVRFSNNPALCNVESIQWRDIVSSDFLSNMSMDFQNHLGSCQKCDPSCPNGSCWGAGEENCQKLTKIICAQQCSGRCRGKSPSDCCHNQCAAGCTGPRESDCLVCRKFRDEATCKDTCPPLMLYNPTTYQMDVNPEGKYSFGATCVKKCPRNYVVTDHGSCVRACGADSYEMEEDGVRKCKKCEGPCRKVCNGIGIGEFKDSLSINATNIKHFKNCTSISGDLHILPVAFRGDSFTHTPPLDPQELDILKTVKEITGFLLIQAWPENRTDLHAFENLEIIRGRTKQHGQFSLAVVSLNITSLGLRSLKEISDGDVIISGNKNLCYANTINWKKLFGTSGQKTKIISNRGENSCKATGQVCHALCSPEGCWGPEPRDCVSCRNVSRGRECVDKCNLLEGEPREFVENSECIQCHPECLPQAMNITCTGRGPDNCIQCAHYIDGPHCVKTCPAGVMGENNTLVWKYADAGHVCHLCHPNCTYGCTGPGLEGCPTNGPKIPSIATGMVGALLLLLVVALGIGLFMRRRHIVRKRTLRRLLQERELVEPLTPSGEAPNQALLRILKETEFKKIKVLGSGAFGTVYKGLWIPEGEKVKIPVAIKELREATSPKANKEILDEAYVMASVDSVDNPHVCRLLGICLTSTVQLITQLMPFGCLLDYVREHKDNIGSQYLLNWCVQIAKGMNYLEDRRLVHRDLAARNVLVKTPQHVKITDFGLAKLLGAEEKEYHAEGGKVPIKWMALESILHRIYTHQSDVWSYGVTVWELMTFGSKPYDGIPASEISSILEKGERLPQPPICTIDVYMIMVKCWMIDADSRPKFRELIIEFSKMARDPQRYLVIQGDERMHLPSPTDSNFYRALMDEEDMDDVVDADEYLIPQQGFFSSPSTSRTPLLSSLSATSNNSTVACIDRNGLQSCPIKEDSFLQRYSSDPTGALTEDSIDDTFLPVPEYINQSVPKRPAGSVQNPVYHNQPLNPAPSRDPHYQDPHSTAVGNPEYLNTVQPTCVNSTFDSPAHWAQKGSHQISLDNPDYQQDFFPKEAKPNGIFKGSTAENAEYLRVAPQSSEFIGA

[5] = biological target: T4, EGFR G719S in Ba/F3 cell lines (Homo sapiens, UniProt P00533, G719S); test: […]-GLO cell viability assay, Ba/F3 cells with EGFR G719S; assay type: cell-based
T4 construct: expressed in transfected cells; host or cells: Ba/F3

[6] = biological target: T5, EGFR L861Q in Ba/F3 cell lines (Homo sapiens, UniProt P00533, L861Q); test: […]-GLO cell viability assay, Ba/F3 cells with EGFR L861Q; assay type: cell-based
T5 construct: expressed in transfected cells; host or cells: Ba/F3

[7] = biological target: EGFR D770_N771insNPG (Homo sapiens, UniProt P00533, INS770NPG); test: HTFR KINEASE-TK kit (Cisbio) inhibition of EGFR mutant D770_N771insNPG; assay type: biochemical
Protocol: as §1

[8] = biological target: EGFR A763_Y764insFQEA (Homo sapiens, UniProt P00533, INS763FQEA); test: HTFR KINEASE-TK kit (Cisbio) inhibition of EGFR mutant A763_Y764insFQEA; assay type: biochemical
EGFR A763_Y764insFQEA, sequence (P00533 with tags, fused parts or gaps INS763FQEA): as the sequence (P00533 with tags, fused parts or gaps INS763FQEA) above
Protocol: as §1

[9] = tested on: LU0387 lung cancer PDX model; test: Antitumor activity in subcutaneous LU0387 lung cancer PDX xenograft mouse model; assay type: in vivo; details: for TV (mm^3) on Day 0: Day 0 (randomization, baseline); for TV (mm^3) on Day 0 / RTV (relative tumor volume) / TV (mm^3) on Day 21: benzoate salt
Protocol: Compound A13 as a single agent was evaluated for lung cancer treatment in a subcutaneous LU0387 lung cancer PDX model using female Balb/c nude mice. Tumor fragments from stock mice were harvested for inoculation into mice. Each mouse was inoculated subcutaneously in the right rear flank with a PDX model LU0387 tumor fragment (2-3 mm in diameter) for tumor development.
The randomization started when the mean tumor size reached approximately 517.37 mm^3. Twenty-four mice were randomly allocated to 8 study groups, with 3 mice per group. The date of randomization was designated as Day 0.
After tumor inoculation, the mice were checked daily for morbidity and mortality. The mice were checked for any effects of tumor growth and treatments on behavior such as mobility, food and water consumption, body weight gain/loss, eye/hair matting, and any abnormalities. Mortality and observed clinical signs were recorded for each individual mouse in detail.
Tumor volumes (TV) were measured twice per week after randomization using a caliper and the volume was calculated using the formula: V=(L×W×W)/2, where V is tumor volume, L is tumor length (the longest tumor dimension), and W is tumor width (the longest tumor dimension perpendicular to L).
Compound A13 was administered orally as a benzoate salt in a citrate/phosphate buffer at pH 4.0 at 20, 40, and 80 mg/kg once daily for 21 days. The results are summarized in Table 3, where RTV represents relative tumor volume.

[10] = Pharmacokinetics in the xenograft mouse model, single oral dose; assay type: in vivo, Balb/c Mice; details: 80 mg/kg single oral dose
Protocol: Using the same xenograft mouse model, the pharmacokinetic (PK) parameters of compound A13 were determined at 80 mg/kg with a single oral dose. For each mouse, blood samples were collected at 0, 1, 2, 4, 8, 16, and 24 h after dosing.

[11] = biological target: T6, EGFR H773_V774insNPH in Ba/F3 cell lines (Homo sapiens, UniProt P00533, INS773NPH); test: […]-GLO cell viability assay, Ba/F3 cells with EGFR H773_V774insNPH; assay type: cell-based
T6 construct: expressed in transfected cells; host or cells: Ba/F3

[12] = biological target: EGFR L861Q (Homo sapiens, UniProt P00533, L861Q); test: HTFR KINEASE-TK kit (Cisbio) inhibition of EGFR mutant L861Q; assay type: biochemical
Protocol: as §1

[13] = 20 mg/kg orally once daily for 21 days
[14] = 40 mg/kg orally once daily for 21 days

SMILES: C=CC(=O)Nc1cc(Nc2nccc(-c3cnc4c(C)cccn34)n2)c(OC)cc1N(C)CCN(C)C [A13, N-(2-((2-(dimethylamino)ethyl)(methyl)amino)-4-methoxy-5-((4-(8-methylimidazo[1,2-a]-pyridin-3-yl)pyrimidin-2-yl)amino)phenyl)acrylamide]
- IC50 [1]: 4 nM
- IC50 [2]: 0.62 nM
- IC50 [3]: 73 nM
- IC50 [4]: 29 nM
- IC50 [5]: 2 nM
- IC50 [6]: 5 nM
- IC50 [7]: 0.42 nM
- IC50 [8]: 0.73 nM
- TV (mm^3) on Day 0 ([9]; 20 mg/kg group): 86 ± 6 mm^3
- RTV (relative tumor volume) [9, 13]: 517 ± 61
- TV (mm^3) on Day 21 [9, 13]: 602 ± 67 mm^3
- TV (mm^3) on Day 0 ([9]; 40 mg/kg group): 89 ± 6 mm^3
- RTV (relative tumor volume) [9, 14]: 281
- TV (mm^3) on Day 21 [9, 14]: 370 ± 31 mm^3
- TGI (tumor growth inhibition) ([9]; 40 mg/kg orally once daily for 21 days, vs. vehicle control (P=0.016)): 61%
- TV (mm^3) on Day 0 ([9]; 80 mg/kg group): 86 mm^3 and 86 ± 6 mm^3
- TV (mm^3) on Day 21 ([9]; 80 mg/kg orally once daily for 21 days): 36 mm^3 and 36 ± 9 mm^3
- TGI (tumor growth inhibition) ([9]; 80 mg/kg orally once daily for 21 days, vs. vehicle control (P<0.001)): 107%
- Tolerability ([9]; 20, 40, and 80 mg/kg orally once daily for 21 days in tumor-bearing mice): well tolerated
- CLz [10]: 353 ± 30 mL/min/kg
- Vz [10]: 52 ± 17 L/kg
- Cmax ([10]; Balb/c, mouse, blood): 1380 ± 432 ng/mL
- half-life ([10]; Balb/c, mouse, blood): 1.7 ± 0.6 h
- AUC(0-t) ([10]; Balb/c, mouse, blood, 0-24 h): 3600 ± 273 ng·h/mL
- IC50 [11]: 62 nM
- IC50 [12]: 0.36 nM
